Patent US5438057A, “Pharmaceutical compositions” (priority 1991, dated 1995)

Legend:
[1] = test system: daunorubicin toxicity; doxorubicin toxicity; details: Herman et al, Adv. Pharmacol. Chemother., 1982, 19, 249; cited from earlier work
[2] = test system: acute daunorubicin toxicity; details: Herman et al, Res. Commun. Chem. Pathol. Pharmacol., 1985, 48, 39; cited from earlier work
[3] = test system: doxorubicin-induced cardiotoxicity; experiment: Protective activity against doxorubicin-induced cardiotoxicity: cardiac output, heart rate, survival, congestive heart failure at 8 weeks; assay type: in vivo, Sprague Dawley rats; details: for Survival: survivors/animals; for Incidence of CHF (congestive heart failure): over 8 weeks
Description: (§1) Mature male Sprague Dawley rats, 13-14 weeks old, weighing 400-500 gm were used. The animals were caged in groups of three and were kept in a constant environment. They were fed 41-B cubed diet and water ad libitum. The animal house was maintained in an alternating 12-hour wake-sleep cycle.
(§2) The cardioprotective activity of (±) trans-1,2-bis(3,5-dioxopiperazin-1-yl)cyclobutane (hereinafter referred to as the compound) was studied in the rats. […] The suspension was prepared shortly before use and was administered at a constant injection volume of 1 ml per 100 gm body weight. Doxorubicin hydrochloride (hereafter referred to as doxorubicin) (Farmitalia, Milan, Italy) was dissolved in sterile water (2 mg/ml) before injection.
(§3) A group of 6 animals received a combined treatment of the compound and doxorubicin. The compound was administered to animals as a single intraperitoneal (i.p.) injection into the lower right quadrant of the abdomen to avoid damage to vital organs. An hour after the administration of the compound, the animals received a single intravenous (i.v.) injection of doxorubicin (4 mg/kg), via the femoral vein. A group of 10 animals received an i.p. injection of saline (1 ml/100 gm) followed by an i.v. injection of saline (0.2 ml/100 gm) one hour later. These rats acted as control animals. Nine animals received an i.p. injection of saline one hour before an i.v. administration of doxorubicin (4 mg/kg). To minimise the effects of circadian timing, doxorubicin administration was carried out between 13.30 hours and 15.30 hours. During intravenous drug administration and for subsequent cardiac output measurements, animals were anaesthetised with choral hydrate (300 mg/kg).
The protective activity of the compound against doxorubicin-induced cardiotoxicity in the rats was assessed at 8 weeks by measuring the cardiac output in animals receiving the treatment using an external counting technique wherein a radioactive tracer, technetium (^99m TcO4), was injected as a bolus into the femoral vein of an anaesthetised animal. The activity time curve over the heart was recorded at 0.1 second intervals for 40 seconds, using an NaI detector connected to a multi-channel analyzer (ND-62, Nuclear Data). ECG and heart rate were determined concomitantly with the cardiac output measurement, using a human ECG monitor (Hewlett Packard 7830A) coupled to a scope memory (model VK-12-2, Seltek Instrument Ltd.) and a chart recorder.
Gross post mortem examinations were carried out on the animals that died during the study as well as those killed at the end of experiment (8 weeks).
(§4) In this study, statistical differences between group means were analysed using Student's t-test.

[4] = Body weight (general acute toxicity) after i.p. pretreatment and doxorubicin; assay type: in vivo, Sprague Dawley rats
Description: as §1, §2, §3
The animals were weighed daily for up to three weeks after receiving treatment. The maximum reduction in body weight over this period was used as an index for the assessment of general acute toxicity. Animals were also weighed at 4 and 8 weeks to assess the general toxicity of the drug.
as §4

[5] = Solubility in saline / aqueous media; assay type: physicochemical; details: administered as suspension in 0.5% CMC
[6] = saline + doxorubicin 4 mg/kg, 8 weeks
[7] = saline i.p. + doxorubicin 4 mg/kg i.v. after 1 hour, 8 weeks
[8] = saline i.p. + doxorubicin 4 mg/kg i.v. after 1 hour
[9] = compound 100 mg/kg i.p. + doxorubicin 4 mg/kg i.v. after 1 hour, 8 weeks
[10] = compound 150 mg/kg i.p. + doxorubicin 4 mg/kg i.v. after 1 hour, 8 weeks
[11] = compound 200 mg/kg i.p. + doxorubicin 4 mg/kg i.v. after 1 hour, 8 weeks
[12] = compound 100, 150 or 200 mg/kg i.p. + doxorubicin 4 mg/kg

CC(CN1CC(=O)NC(=O)C1)N1CC(=O)NC(=O)C1 (racemic) [ICRF 159]
effectiveness in reducing high dose daunorubicin toxicity relative to doxorubicin toxicity [1]: consistently more effective in reducing high dose daunorubicin toxicity than doxorubicin toxicity

CCC(CN1CC(=O)NC(=O)C1)N1CC(=O)NC(=O)C1 (racemic) [R=C2 H5 and R'=R"=H (dl)]
protective effect against acute daunorubicin toxicity [2]: either no protective activity or only minimal protective activity

C[C@H]([C@H](C)N1CC(=O)NC(=O)C1)N1CC(=O)NC(=O)C1 [R=R'=CH3 and R"=H (meso)]
protective effect against acute daunorubicin toxicity [2]: either no protective activity or only minimal protective activity

COc1cccc2c1C(=O)c1c(O)c3c(c(O)c1C2=O)C[C@@](O)(C(=O)CO)C[C@@H]3O[C@H]1C[C@H](N)[C@H](O)[C@H](C)O1 [doxorubicin]
reduction in cardiac output [3, 6]: 60%
reduction in heart rate [3, 6]: 35%
death during study ([3]; saline + doxorubicin 4 mg/kg, 9 animals): one animal died just before 8 weeks
RCO: mean relative cardiac output (treated / age-matched control) [3, 7]: 0.41 ± 0.04
RHR: mean relative heart rate (treated / age-matched control) [3, 7]: 0.65 ± 0.19
Survival [3, 7]: 8/9
Incidence of CHF (congestive heart failure) [3, 8]: 0/8
reduction in body weight in the first three weeks after treatment ([4]; doxorubicin 4 mg/kg i.v., pretreated with saline i.p.): > 10%
W2: mean body weight at 4 weeks after treatment [4, 8]: 381 ± 8
W3: mean body weight at 8 weeks after treatment [4, 8]: 324 ± 27
ΔW(%): maximum reduction in body weight in the first 3 weeks after treatment [4, 8]: 11.6 ± 0.7%
W1: mean body weight of animals at the time of injection ([4]; saline i.p. + doxorubicin 4 mg/kg i.v. after 1 hour, baseline): 447 ± 11

CC(CN1CC(=O)NC(=O)C1)N1CC(=O)NC(=O)C1 (racemic) [the compound having R=CH3 and R'=R"=H (as the dl, d or l isomer)]
protective effect against acute daunorubicin toxicity [2]: give protection against the lethal effects of daunorubicin

O=C1CN(CCN2CC(=O)NC(=O)C2)CC(=O)N1 [R=R'=R"=H]
protective effect against acute daunorubicin toxicity [2]: either no protective activity or only minimal protective activity

CC[C@H]([C@H](C)N1CC(=O)NC(=O)C1)N1CC(=O)NC(=O)C1 (relative stereo) [R: CH3, R'=C2 H5 and R"=H (dl-erythro)]
protective effect against acute daunorubicin toxicity [2]: either no protective activity or only minimal protective activity

CC(CN1CC(=O)N(C)C(=O)C1)N1CC(=O)N(C)C(=O)C1 (stereo not drawn) [R=R"=CH3and R'=H (l)]
protective effect against acute daunorubicin toxicity [2]: either no protective activity or only minimal protective activity

CN1C(=O)CN(CCN2CC(=O)N(C)C(=O)C2)CC1=O [R=R'=H and R"=CH3]
protective effect against acute daunorubicin toxicity [2]: either no protective activity or only minimal protective activity

O=C1CN(C2CCC2N2CC(=O)NC(=O)C2)CC(=O)N1 (stereo not drawn) [R+R'=--CH2 --CH2 -- and R"=H]
protective effect against acute daunorubicin toxicity [2]: either no protective activity or only minimal protective activity

O=C1CN(CCCN2CC(=O)NC(=O)C2)CC(=O)N1
protective effect against acute daunorubicin toxicity [2]: either no protective activity or only minimal protective activity

O=C1CN(CCN2CC(=O)N(CN3CCOCC3)C(=O)C2)CC(=O)N1CN1CCOCC1 [bimolane]
protective effect against acute daunorubicin toxicity [2]: give protection against the lethal effects of daunorubicin

O=C1CN([C@@H]2CC[C@H]2N2CC(=O)NC(=O)C2)CC(=O)N1 (racemic) [Compound, (±) trans-1,2-bis(3,5-dioxopiperazin-1-yl)cyclobutane]
solubility in saline [5]: inadequately soluble in saline
change in heart rate ([3]; animals pretreated with the compound + doxorubicin 4 mg/kg): no change in heart rate
RCO: mean relative cardiac output (treated / age-matched control) [3, 9]: 0.80 ± 0.05
RHR: mean relative heart rate (treated / age-matched control) [3, 9]: 1.04 ± 0.03
Survival [3, 9]: 6/6
Incidence of CHF (congestive heart failure) ([3]; compound 100 mg/kg i.p. + doxorubicin 4 mg/kg i.v. after 1 hour): 0/6
RCO: mean relative cardiac output (treated / age-matched control) [3, 10]: 0.86 ± 0.06
RHR: mean relative heart rate (treated / age-matched control) [3, 10]: 1.00 ± 0.04
Survival [3, 10]: 6/6
Incidence of CHF (congestive heart failure) ([3]; compound 150 mg/kg i.p. + doxorubicin 4 mg/kg i.v. after 1 hour): 0/6
RCO: mean relative cardiac output (treated / age-matched control) [3, 11]: 0.84 ± 0.05
RHR: mean relative heart rate (treated / age-matched control) [3, 11]: 1.05 ± 0.03
Survival [3, 11]: 6/6
Incidence of CHF (congestive heart failure) ([3]; compound 200 mg/kg i.p. + doxorubicin 4 mg/kg i.v. after 1 hour): 0/6
activity against doxorubicin-induced cardiotoxicity [3, 12]: significant activity against doxorubicin-induced cardiotoxicity
survival (in words) [3, 12]: survived the course of study of 8 weeks
signs of congestive failure ([3]; compound 100, 150 or 200 mg/kg i.p. + doxorubicin 4 mg/kg, 8 weeks): without showing any signs of congestive failure
impairment in cardiac output compared to saline and doxorubicin ([3]; compound 100, 150 or 200 mg/kg i.p. + doxorubicin 4 mg/kg, p<0.001): significantly less impairment in cardiac output
dose dependence of the protective activity ([3]; dose range 100-200 mg/kg i.p. + doxorubicin 4 mg/kg): no indication of dose dependent changes in the protective activity
